In patent publication US20090239845A1, “PYRAZOLE COMPOUNDS AS PROSTAGLANDIN RECEPTORS LIGANDS” (priority 2005, published 2009):
Structures can show the parent of a compound that is named as a salt.

Experiments:
[1] = biological target: T1, human prostanoid EP1 receptor (Homo sapiens, UniProt P34995); experiment: Binding assay for the human prostanoid EP1 receptor (competition with [3H]-PGE2); settings: negative logarithm10 of the IC50; competition with [3H]-PGE2, CHO-K1 cell membranes; averages of a number of experiments; read-out: pIC50 value (converted)
T1 construct: expressed in transfected cells; host or cells: CHO-K1 (membrane fraction)
T1 sequence (P34995 1-402): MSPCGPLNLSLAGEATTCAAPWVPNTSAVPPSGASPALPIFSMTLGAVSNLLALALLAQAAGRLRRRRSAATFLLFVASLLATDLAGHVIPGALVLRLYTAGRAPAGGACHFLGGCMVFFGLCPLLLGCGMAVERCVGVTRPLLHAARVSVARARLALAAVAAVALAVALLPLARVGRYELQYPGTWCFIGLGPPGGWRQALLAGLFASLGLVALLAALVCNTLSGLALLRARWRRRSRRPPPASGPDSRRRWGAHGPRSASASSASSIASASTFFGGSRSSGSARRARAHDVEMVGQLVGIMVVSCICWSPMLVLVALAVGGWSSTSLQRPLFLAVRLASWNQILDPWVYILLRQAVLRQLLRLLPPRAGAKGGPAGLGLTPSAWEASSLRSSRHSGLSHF
Protocol: Competition assay using [^3H]-PGE2.
Compound potencies are determined using a radioligand binding assay. In this assay compound potencies are determined from their ability to compete with tritiated prostaglandin E2 ([^3H]-PGE2) for binding to the human EP1 receptor.
This assay utilises Chinese hamster ovary-K1 (CHO-K1) cells into which a stable vector containing the EP1 cDNA has previously been transfected. Cells are cultured in suitable flasks containing culture medium such as DMEM:F-12 supplemented with 10% v/v foetal calf serum, 2 mM L-glutamine, 0.25 mg/ml geneticin, 10 μg/ml puromycin and 10 μM indomethacin.
Cells are detached from the culture flasks by incubation in calcium and magnesium free phosphate buffered saline containing 1 mM disodium ethylenediaminetetraacetic acid (Na2EDTA) and 10 μM indomethacin for 5 min. The cells are isolated by centrifugation at 250×g for 5mins and suspended in an ice cold buffer such as 50 mM Tris, 1 mM Na2EDTA, 140 mM NaCl, 10 μM indomethacin (pH 7.4). The cells are homogenised using a Polytron tissue disrupter (2×10s burst at full setting), centrifuged at 48,000×g for 20mins and the pellet containing the membrane fraction is washed (optional) three times by suspension and centrifugation at 48,000×g for 20mins. The final membrane pellet is suspended in an assay buffer such as 10 mM 2-[N-morpholino]ethanesulphonic acid, 1 mM Na2EDTA, 10 mM MgCl2 (pH 6). Aliquots are frozen at −80° C. until required.
For the binding assay the cell membranes, competing compounds and [^3H]-PGE2 (3 nM final assay concentration) are incubated in a final volume of 100 μl for 30 min at 30° C. All reagents are prepared in assay buffer. Reactions are terminated by rapid vacuum filtration over GF/B filters using a Brandell cell harvester. The filters are washed with ice cold assay buffer, dried and the radioactivity retained on the filters is measured by liquid scintillation counting in Packard TopCount scintillation counter.
The data are analysed using non linear curve fitting techniques to determine the concentration of compound producing 50% inhibition of specific binding (IC50).

human EP1 receptor = biological target: T2, human EP1 receptor (Homo sapiens, UniProt P34995); experiment: human EP1 calcium mobilisation assay; format: cell-based; settings: negative logarithm10 of the antagonist dissociation constant; CHO-K1 cells, PGE2; free bases or sodium salts; averages of a number of experiments; read-out: functional pKi value (converted)
T2 construct: expressed in transfected cells; host or cells: CHO-K1
T2 sequence (P34995 1-402): T1 sequence (P34995 1-402)
Protocol: Briefly, the antagonist properties of compounds are assessed by their ability to inhibit the mobilisation of intracellular calcium ([Ca^2+]i) in response to activation of EP1 or EP3 receptors by the natural agonist hormone prostaglandin E2 (PGE2). Increasing concentrations of antagonist reduce the amount of calcium that a given concentration of PGE2 can mobilise. The net effect is to displace the PGE2 concentration-effect curve to higher concentrations of PGE2. The amount of calcium produced is assessed using a calcium-sensitive fluorescent dye such as Fluo-4, AM and a suitable instrument such as a Fluorimetric Imaging Plate Reader (FLIPR). Increasing amounts of [Ca^2+]i produced by receptor activation increase the amount of fluorescence produced by the dye and give rise to an increasing signal. The signal may be detected using the FLIPR instrument and the data generated may be analysed with suitable curve-fitting software.
The human EP1 or EP3 calcium mobilisation assay (hereafter referred to as ‘the calcium assay’) utilises Chinese hamster ovary-K1 (CHO-K1) cells into which a stable (pCIN; BioTechniques 20 (1996): 102-110) vector containing either EP1 or EP3 cDNA has previously been transfected. Cells are cultured in suitable flasks containing culture medium such as DMEM:F-12 supplemented with 10% v/v foetal calf serum, 2 mM L-glutamine, 0.25 mg/ml geneticin, 100 μM flurbiprofen and 10 μg/ml puromycin.
For assay, cells are harvested using a proprietary reagent that dislodges cells such as Versene. Cells are re-suspended in a suitable quantity of fresh culture media for introduction into a 384-well plate. Following incubation for 24 hours at 37° C. the culture media is replaced with a medium containing Fluo-4 and the detergent pluronic acid, and a further incubation takes place. Concentrations of compounds are then added to the plate in order to construct concentration-effect curves. This may be performed on the FLIPR in order to assess the agonist properties of the compounds. Concentrations of PGE2 are then added to the plate in order to assess the antagonist properties of the compounds.
The data so generated may be analysed by means of a computerised curve-fitting routine. The concentration of compound that elicits a half-maximal inhibition of the calcium mobilisation induced by PGE2 (plC50) may then be estimated.

Row | SMILES | IC50 [1] [nM] | Ki (human EP1 receptor) [nM]
1 | Cc1cc(NC(=O)c2cccc3ccccc23)nn1Cc1cc(Cl)ccc1OCc1ccccc1 [Example 160, N-[1-({5-Chloro-2-[(phenylmethyl)oxy]phenyl}methyl)-5-methyl-1H-pyrazol-3-yl]-1-naphthalenecarboxamide] | ≤ 10 | 
2 | Cc1cc(C(=O)Nc2c(F)cccc2F)nn1Cc1cc(Br)ccc1OCc1ccccc1 [Example 313, 1-({5-Bromo-2-[(phenylmethyl)oxy]phenyl}methyl)-N-(2,6-difluorophenyl)-5-methyl-1H-pyrazole-3-carobxamide] | ≤ 10 | 
3 | Cc1cc(C(=O)Nc2ccc(CN(C)C)cc2)nn1Cc1cc(Cl)ccc1OCc1ccccc1 [Example 346, 1-({5-Chloro-2-[(phenylmethyl)oxy]phenyl}methyl)-N-{4-[(dimethylamino)methyl]phe-nyl}-5-methyl-1H-pyrazole-3-carboxamide hydrochloride] | ≤ 10 | 
4 | Cc1cc(-c2nnn[nH]2)nn1Cc1cc(Cl)ccc1OCc1ccccc1 [Example 353, 5-[1-({5-Chloro-2-[(phenylmethyl)oxy]phenyl}methyl)-5-methyl-1H-pyrazol-3-yl]-1H-tetrazole] | ≤ 10 | 
5 | Cc1cc(C(=O)NS(=O)(=O)c2ccccc2)nn1Cc1cc(Cl)ccc1OCc1ccccc1 [Example 355, 1-({5-Chloro-2-[(phenylmethyl)oxy]phenyl}methyl)-5-methyl-N-(phenylsulfonyl)-1H-pyrazole-3-carboxamide] | ≤ 10 | 
6 | Cc1noc(C)c1S(=O)(=O)NC(=O)c1cc(C)n(Cc2cc(Cl)ccc2OCc2ccccc2)n1 [Example 356, 1-({5-Chloro-2-[(phenylmethyl)oxy]phenyl}methyl)-N-[(3,5-dimethyl-4-isoxazolyl)sulfonyl]-5-methyl-1H-pyrazole-3-carboxamide] | ≤ 10 | 
7 | Cc1cc(-c2cnc(-c3cnccn3)[nH]2)nn1Cc1cc(Cl)ccc1OCc1ccccc1 [Example 482, 2-{4-[1-({5-chloro-2-[(phenylmethyl)oxy]phenyl}methyl)-5-methyl-1H-pyrazol-3-yl]-1H-imidazol-2-yl}pyrazine] |  | > 1000
8 | Cc1cc(-c2cnc(-c3ccncc3)[nH]2)nn1Cc1cc(Cl)ccc1OCc1ccccc1 [Example 483, 4-{4-[1-({5-Chloro-2-[(phenylmethyl)oxy]phenyl}methyl)-5-methyl-1H-pyrazol-3-yl]-1H-imidazol-2-yl}pyridine hydrochloride] |  | > 1000
9 | Cc1cc(-c2cnc(N3CCOCC3)[nH]2)nn1Cc1cc(Cl)ccc1OCc1ccccc1 [Example 485, 4-{4-[1-({5-Chloro-2-[(phenylmethyl)oxy]phenyl}methyl)-5-methyl-1H-pyrazol-3-yl]-1H-imidazol-2-yl}morpholine dihydrochloride] |  | > 1000

Continued, values first:

Row | IC50 [1] [nM] | Ki (human EP1 receptor) [nM] | SMILES
10 | ≤ 10 |  | Cc1cc(NC(=O)OC(C)C)nn1Cc1cc(Br)ccc1OCc1ccc(F)cc1F [Example 7, 1-Methylethyl {1-[(5-bromo-2-{[(2,4-difluorophenyl)methyl]oxy}phenyl)methyl]-5-methyl-1H-pyrazol-3-yl}carbamate]
11 | ≤ 10 |  | Cc1cc(NC(=O)OC(C)(C)C)nn1Cc1cc(Br)ccc1OCc1ccc(Cl)cc1Cl [Example 8, 1,1-Dimethylethyl {1-[(5-bromo-2-{[(2,4-dichlorophenyl)methyl]oxy}phenyl)methyl]-5-methyl-1H-pyrazol-3-yl}carbamate]
12 | ≤ 10 |  | Cc1cc(NC(=O)OC2CCOCC2)nn1Cc1cc(Br)ccc1OCc1ccc(Cl)cc1Cl [Example 30, Tetrahydro-2H-pyran-4-yl {1-[(5-bromo-2-{[(2,4-dichlorophenyl)methyl]oxy}phe-nyl)methyl]-5-methyl-1H-pyrazol-3-yl}carbamate]
13 | ≤ 10 |  | Cc1cc(NC(=O)CC(C)C)nn1Cc1cc(Cl)ccc1OCC(C)C [Example 76, N-[1-({5-Chloro-2-[(2-methylpropyl)oxy]phenyl}methyl)-5-methyl-1H-pyrazol-3-yl]-3-methylbutanamide]
14 | ≤ 10 |  | Cc1cc(NC(=O)CC(C)(C)C)nn1Cc1cc(Cl)ccc1OCc1ccccc1 [Example 109, N-[1-({5-Chloro-2-[(phenylmethyl)oxy]phenyl}methyl)-5-methyl-1H-pyrazol-3-yl]-3,3-dimethylbutanamide]
15 | ≤ 10 |  | Cc1cc(NC(=O)C2CCCCC2)nn1Cc1cc(Cl)ccc1OCc1ccccc1 [Example 110, N-[1-({5-Chloro-2-[(phenylmethyl)oxy]phenyl}methyl)-5-methyl-1H-pyrazol-3-yl]cyclohexanecarboxamide]
16 | ≤ 10 |  | Cc1cc(NC(=O)Cc2ccccn2)nn1Cc1cc(Cl)ccc1OCc1ccc(Cl)cc1F [Example 118, N-{1-[(5-Chloro-2-{[(4-chloro-2-fluorophenyl)methyl]oxy}phenyl)methyl]-5-methyl-1H-pyrazol-3-yl}-2-(2-pyridinyl)acetamide]
17 | ≤ 10 |  | Cc1cc(NC(=O)CC(C)(C)C)nn1Cc1cc(Cl)ccc1OCc1ccc(F)cc1F [Example 132, N-{1-[(5-Chloro-2-{[(2,4-difluorophenyl)methyl]oxy}phenyl)methyl]-5-methyl-1H-pyrazol-3-yl}-3,3-dimethylbutanamide]
18 | ≤ 10 |  | Cc1cc(NC(=O)CC(C)(C)C)nn1Cc1cc(Cl)ccc1OCc1ccc(F)cc1Cl [Example 133, N-{1-[(5-Chloro-2-{[(2-chloro-4-fluorophenyl)methyl]oxy}phenyl)methyl]-5-methyl-1H-pyrazol-3-yl}-3,3-dimethylbutanamide]
19 | ≤ 10 |  | Cc1cc(NC(=O)CC(C)(C)C)nn1Cc1cc(Cl)ccc1OCc1ccc(Cl)cc1F [Example 136, N-{1-[(5-Chloro-2-{[(4-chloro-2-fluorophenyl)methyl]oxy}phenyl)methyl]-5-methyl-1H-pyrazol-3-yl}-3,3-dimethylbutanamide]
20 | ≤ 10 |  | Cc1cc(NC(=O)CC(C)(C)C)nn1Cc1cc(Cl)ccc1OCc1ccc(Cl)cc1 [Example 137, N-{1-[(5-Chloro-2-{[(4-chlorophenyl)methyl]oxy}phenyl)methyl]-5-methyl-1H-pyraozl-3-yl}-3,3-dimethylbutanamide]
21 | ≤ 10 |  | Cc1cc(NC(=O)CC2CCCCC2)nn1Cc1cc(Cl)ccc1OCc1ccccc1 [Example 154, N-[1-({5-Chloro-2-[(phenylmethyl)oxy]phenyl}methyl)-5-methyl-1H-pyrazol-3-yl]-2-cyclohexylacetamide]
22 | ≤ 10 |  | Cc1cc(C(=O)Nc2c(F)cccc2F)nn1Cc1cc(Br)ccc1OCc1ccc(F)cc1F [Example 319, 1-[(5-Bromo-2-{[(2,4-difluorophenyl)methyl]oxy}phenyl)methyl]-N-(2,6-difluorophenyl)-5-methyl-1H-pyrazole-3-carboxamide]
